In patent publication US9951064B2, “Azaindazole compounds as inhibitors of T790M containing EGFR mutants” (Genentech, Inc., priority 2013, dated 2018):

Assays:
EGFR T790M L858R = target: T1, EGFR T790M L858R (Homo sapiens, UniProt P00533, L858R/T790M); test: EGFR T790M L858R biochemical assay (Caliper mobility shift); conditions: 5 μM ATP; apparent Ki (Morrison fit) converted by Cheng-Prusoff, Km of ATP 1.3 μM
T1 construct: purchased Life Technologies PV4879
Protocol: (§1) The exemplified compounds described herein were tested according to the assay below. The enzyme data reported in Tables 4-5 is generally a representative of multiple experiments.
Reactions proceed for 30 minutes at room temperature (22° C.) and are terminated with 80 mM 2,2′,2″,2′″-(ethane-1,2-diyldinitrilo)tetraacetic acid (EDTA). Product is detected using the Caliper mobility shift detection method where product and substrate are electrophoretically separated and measured.

EGFR del746-750 T790M = target: T2, EGFR del746-750 T790M (Homo sapiens, UniProt P00533, DEL746-750/T790M); test: EGFR del746-750 T790M biochemical assay (Caliper mobility shift); conditions: 5 μM ATP; apparent Ki (Morrison fit) converted by Cheng-Prusoff, Km of ATP 2.1 μM; read-out: EGFR(T790M/d746-750) Ki
T2 construct: purchased Carna Biosciences 08-528
Protocol: as §1
Reactions proceed for 30 minutes at room temperature (22° C.) and are terminated with 80 mM 2,2′,2″,2″′-(ethane-1,2-diyldinitrilo)tetraacetic acid (EDTA). Product is detected using the Caliper mobility shift detection method where product and substrate are electrophoretically separated and measured.

[1] = target: T3, phosphor-EGFR in H1975(L585R/T790M) mutant EGFR expressing cells (Homo sapiens, UniProt P00533, L858R/T790M); test: H1975 pEGFR MSD cellular assay; format: cell-based; conditions: NCI-H1975 cells, serum starved, 1 hour compound incubation, pEGFR Tyr1068 MSD; read-out: HI975 pEGFR EC50
T3 construct: host or cells: NCI-H1975
Protocol: H1975 pEGFR MSD Cellular Assays
These assays are intended for determining cellular. […] (Meso Scale Discovery Catalog# N31CB-1).
NCI-H1975 (ATCC Catalog# CRL-5908) cells are maintained in medium containing RPMI 1640, 10% FBS, 4 mM L-Glutamine, 1% Penicillin-Streptomycin, and 4.5 g/L Glucose. All cell culture reagents were purchased from Invitrogen/Gibco. Cells are cultured at 37° C. at 5% CO2 and split as recommended by ATCC.
Cell Plating and Serum Starvation:
H1975 cells are harvested and plated into sterile cell culture treated 384 well plates (Greiner catalog #781091) at a density of 30,000 cells/well in 50 ul culture medium and placed in a 37° C. at 5% CO2 incubator for six hours. After six hours, culture medium is aspirated and replaced with serum-free culture medium. Cells are then incubated with the serum-free medium overnight at 37° C. and 5% CO2.
The following day, test compounds are serially diluted in dimethyl sulfoxide (DMSO) and added to cells in serum free medium (final DMSO concentration 0.5%). Assay plates are then incubated for 1 hour at 37° C. and 5% CO2. Following 1 hour of compound incubation cells are then lysed and processed as per the MSD pEGFR assay kit protocol. Cell lysates are added to assay plates pre-coated with antibodies against phosphorylated EGFR. Phosphorylated EGFR in samples are allowed to bind to the capture antibodies overnight at 4° C. The detection antibody (anti-total EGFR, labeled with an electrochemiluminescent SULFO-TAG) is added to the bound lysate and incubated for 1 hour at room temperature. The MSD Read Buffer is added such that when a voltage is applied to the plate electrodes, the labels bound to the electrode surface emit light. The MSD Sector Instrument measures the intensity of the light, and quantitatively measures the amount of phosphorylated-EGFR in the sample. Percent inhibition of EGFR phosphorylation by varying concentrations of test compounds is calculated relative to untreated controls. EC50 values are calculated using the 4 parameter logistic nonlinear regression dose-response model.

[2] = tested on: H1975 (EGFR T790M/L858R) cell proliferation; test: H1975 proliferation assay (Cell Titer-Glo); format: cell-based; conditions: Homo sapiens, NCI-H1975, 72 h, NCI-H1975 cells, 72 hour incubation, read-out: H1975 antiproliferative EC50
Protocol: H1975 Proliferation Assays
All cell culture reagents were purchased from Invitrogen/Gibco. Cells are cultured at 37° C. at 5% CO2 and split as recommended by ATCC.

T2 sequence (P00533 with tags, fused parts or gaps DEL746-750/T790M limits assumed): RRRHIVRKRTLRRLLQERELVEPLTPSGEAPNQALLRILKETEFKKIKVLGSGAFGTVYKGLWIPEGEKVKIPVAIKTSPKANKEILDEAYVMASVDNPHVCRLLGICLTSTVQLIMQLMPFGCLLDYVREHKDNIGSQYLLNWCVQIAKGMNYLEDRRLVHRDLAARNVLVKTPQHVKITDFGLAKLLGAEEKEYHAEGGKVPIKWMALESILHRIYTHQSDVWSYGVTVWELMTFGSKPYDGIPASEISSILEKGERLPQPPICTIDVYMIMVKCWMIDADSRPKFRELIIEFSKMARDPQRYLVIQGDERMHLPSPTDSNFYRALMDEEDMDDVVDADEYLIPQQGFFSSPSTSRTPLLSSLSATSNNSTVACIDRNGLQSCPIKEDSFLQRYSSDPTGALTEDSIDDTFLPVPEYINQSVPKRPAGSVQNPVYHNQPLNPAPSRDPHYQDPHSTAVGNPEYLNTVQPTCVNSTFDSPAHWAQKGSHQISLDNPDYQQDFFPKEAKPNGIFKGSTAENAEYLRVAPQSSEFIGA
T3 sequence (P00533 25-1210 T790M/L858R): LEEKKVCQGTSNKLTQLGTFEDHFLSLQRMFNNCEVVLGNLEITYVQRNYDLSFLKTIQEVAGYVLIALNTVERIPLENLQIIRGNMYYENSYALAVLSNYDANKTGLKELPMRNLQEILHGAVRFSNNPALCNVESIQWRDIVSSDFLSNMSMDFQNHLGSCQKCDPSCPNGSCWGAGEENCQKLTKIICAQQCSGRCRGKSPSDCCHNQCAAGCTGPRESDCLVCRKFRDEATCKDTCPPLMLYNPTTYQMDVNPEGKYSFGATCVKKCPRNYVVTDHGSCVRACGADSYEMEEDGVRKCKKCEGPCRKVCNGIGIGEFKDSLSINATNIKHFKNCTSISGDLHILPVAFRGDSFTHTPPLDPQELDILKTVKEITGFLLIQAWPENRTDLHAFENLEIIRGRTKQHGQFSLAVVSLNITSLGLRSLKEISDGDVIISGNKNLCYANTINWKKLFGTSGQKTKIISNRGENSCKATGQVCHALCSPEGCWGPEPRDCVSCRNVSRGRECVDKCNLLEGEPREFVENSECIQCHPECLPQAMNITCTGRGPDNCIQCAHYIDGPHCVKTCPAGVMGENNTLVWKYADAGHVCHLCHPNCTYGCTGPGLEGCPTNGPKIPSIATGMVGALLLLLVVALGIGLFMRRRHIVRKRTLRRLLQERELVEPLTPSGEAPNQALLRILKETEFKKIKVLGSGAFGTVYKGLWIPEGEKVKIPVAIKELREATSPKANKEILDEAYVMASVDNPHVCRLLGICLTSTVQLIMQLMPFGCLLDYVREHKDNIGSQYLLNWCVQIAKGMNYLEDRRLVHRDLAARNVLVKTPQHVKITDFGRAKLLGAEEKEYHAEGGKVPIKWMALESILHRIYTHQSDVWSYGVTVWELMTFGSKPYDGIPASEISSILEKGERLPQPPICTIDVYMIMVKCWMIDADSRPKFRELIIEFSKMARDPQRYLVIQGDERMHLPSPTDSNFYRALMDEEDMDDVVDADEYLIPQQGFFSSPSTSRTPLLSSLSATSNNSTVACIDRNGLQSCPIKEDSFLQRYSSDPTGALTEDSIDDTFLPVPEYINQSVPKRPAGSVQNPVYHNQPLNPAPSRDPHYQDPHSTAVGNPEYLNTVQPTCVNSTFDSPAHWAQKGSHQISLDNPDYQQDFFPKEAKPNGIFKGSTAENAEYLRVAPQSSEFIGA
T1 sequence (P00533 25-1210 T790M/L858R): as above

| Structure (SMILES) | Ki (EGFR T790M L858R) [nM] | Ki (EGFR del746-750 T790M) [nM] | EC50 [1] [nM] | EC50 [2] [nM] |
| --- | --- | --- | --- | --- |
| CC(C)n1nc(NC(C)(C)C(N)=O)c2cnc(Nc3ccnc(N4CC[C@H](O)[C@H](F)C4)n3)cc21 (racemic) [Example 182, (±)-2-(6-(2-(cis-3-Fluoro-4-hydroxypiperidin-1-yl)pyrimidin-4-ylamino)-1-isopropyl-1H-pyrazolo[4,3-c]pyridin-3-ylamino)-2-methylpropanamide] | 377 | 1150 | – | – |
| CC[C@H](C)n1nc(N2CC[C@@H](O)C2)c2cnc(Nc3ccnc(N4CC[C@](C)(C(N)=O)C4)n3)cc21 (relative stereo) [Example 209, (S*)-1-(4-((1-((S*)-sec-Butyl)-3-((R)-3-hydroxypyrrolidin-1-yl)-1H-pyrazolo[4,3-c]pyridin-6-yl)amino)pyrimidin-2-yl)-3-methylpyrrolidine-3-carboxamide] | 143 | 111 | – | – |
| CCC(C)n1nc(N2CC[C@@H](O)C2)c2cnc(Nc3ccnc(N4CCC5(CC4)CNC(=O)CO5)n3)cc21 (single isomer, unassigned) [Example 207, 9-(4-((1-((S*)-sec-Butyl)-3-((R)-3-hydroxypyrrolidin-1-yl)-1H-pyrazolo[4,3-c]pyridin-6-yl)amino)pyrimidin-2-yl)-1-oxa-4,9-diazaspiro[5.5]undecan-3-one] | 469 | 1060 | – | – |
| CC(C)n1nc(N)c2cnc(Nc3ccnc(-c4cnn(S(=O)(=O)C5CC5)c4)n3)cc21 [Example 45, N^6-(2-(1-(cyclopropylsulfonyl)-1H-pyrazol-4-yl)pyrimidin-4-yl)-1-isopropyl-1H-pyrazolo[4,3-c]pyridine-3,6-diamine] | 0.8 | – | 63.8 | 247 |
| CC(C)Nc1nn(C(C)C)c2cc(Nc3ccnc(-c4cnn(S(=O)(=O)C5CC5)c4)n3)ncc12 [Example 46, N^6-(2-(1-(cyclopropylsulfonyl)-1H-pyrazol-4-yl)pyrimidin-4-yl)-N^3,1-diisopropyl-1H-pyrazolo[4,3-c]pyridine-3,6-diamine] | 2.7 | – | 153 | 951 |
| CC(C)n1nc(NCCC(N)=O)c2cnc(Nc3ccnc(-c4cnn(S(=O)(=O)C5CC5)c4)n3)cc21 [Example 47, 3-(6-(2-(1-(cyclopropylsulfonyl)-1H-pyrazol-4-yl)pyrimidin-4-ylamino)-1-isopropyl-1H-pyrazolo[4,3-c]pyridin-3-ylamino)propanamide] | 0.8 | – | 874 | 3970 |
| CC(C)n1nc(NCC(N)=O)c2cnc(Nc3ccnc(-c4cnn(S(=O)(=O)C5CC5)c4)n3)cc21 [Example 48, 2-(6-(2-(1-(cyclopropylsulfonyl)-1H-pyrazol-4-yl)pyrimidin-4-ylamino)-1-isopropyl-1H-pyrazolo[4,3-c]pyridin-3-ylamino)acetamide] | 0.6 | – | 1460 | 5440 |
| CC(C)n1nc(N(C)CC(O)CO)c2cnc(Nc3ccnc(-c4cnn(S(=O)(=O)C5CC5)c4)n3)cc21 (centres unmarked) [Example 49, 3-((6-(2-(1-(cyclopropylsulfonyl)-1H-pyrazol-4-yl)pyrimidin-4-ylamino)-1-isopropyl-1H-pyrazolo[4,3-c]pyridin-3-yl)(methyl)amino)propane-1,2-diol] | 0.7 | – | 98 | 945 |
| CC(C)c1nn(C(C)C)c2cc(Nc3ccnc(-c4cnn(S(=O)(=O)C5CC5)c4)n3)ncc12 [Example 50, N-(2-(1-(cyclopropylsulfonyl)-1H-pyrazol-4-yl)pyrimidin-4-yl)-1,3-diisopropyl-1H-pyrazolo[4,3-c]pyridin-6-amine] | 23.5 | – | 2380 | 3700 |
| CC(C)n1nc(N2CCOCC2)c2cnc(Nc3ccnc(-c4cnn(S(=O)(=O)C5CC5)c4)n3)cc21 [Example 51, N-(2-(1-(cyclopropylsulfonyl)-1H-pyrazol-4-yl)pyrimidin-4-yl)-1-isopropyl-3-morpholino-1H-pyrazolo[4,3-c]pyridin-6-amine] | 1.9 | – | 74.4 | 266 |
| CC(C)n1nc(NC2CCOCC2)c2cnc(Nc3ccnc(-c4cnn(S(=O)(=O)C5CC5)c4)n3)cc21 [Example 52, N^6-(2-(1-(cyclopropylsulfonyl)-1H-pyrazol-4-yl)pyrimidin-4-yl)-1-isopropyl-N^3-(tetrahydro-2H-pyran-4-yl)-1H-pyrazolo[4,3-c]pyridine-3,6-diamine] | 2.2 | – | 90.1 | 1110 |
| CC(C)n1nc(N2CC(C(N)=O)C2)c2cnc(Nc3ccnc(-c4cnn(S(=O)(=O)C5CC5)c4)n3)cc21 [Example 55, 1-(6-(2-(1-(cyclopropylsulfonyl)-1H-pyrazol-4-yl)pyrimidin-4-ylamino)-1-isopropyl-1H-pyrazolo[4,3-c]pyridin-3-yl)azetidine-3-carboxamide] | < 0.6 | – | 144 | 938 |
| CC(C)n1nc(N2CC(C(=O)N(C)C)C2)c2cnc(Nc3ccnc(N4CCC(O)C(C)(C)C4)n3)cc21 (centres unmarked) [Example 56, 1-(6-(2-(4-hydroxy-3,3-dimethylpiperidin-1-yl)pyrimidin-4-ylamino)-1-isopropyl-1H-pyrazolo[4,3-c]pyridin-3-yl)-N,N-dimethylazetidine-3-carboxamide] | 1.2 | – | 31.1 | 348 |
| CC(C)n1nc(N2CC(C(=O)N(C)C)C2)c2cnc(Nc3ccnc(-c4cnn(S(=O)(=O)C5CC5)c4)n3)cc21 [Example 57, 1-(6-(2-(1-(cyclopropylsulfonyl)-1H-pyrazol-4-yl)pyrimidin-4-ylamino)-1-isopropyl-1H-pyrazolo[4,3-c]pyridin-3-yl)-N,N-dimethylazetidine-3-carboxamide] | < 0.6 | – | 18.1 | 159 |
| CC(C)n1nc(N2CC[C@H](CO)C2)c2cnc(Nc3ccnc(-c4cnn(S(=O)(=O)C5CC5)c4)n3)cc21 [Example 58, (S)-(1-(6-(2-(1-(cyclopropylsulfonyl)-1H-pyrazol-4-yl)pyrimidin-4-ylamino)-1-isopropyl-1H-pyrazolo[4,3-c]pyridin-3-yl)pyrrolidin-3-yl)methanol] | 1.2 | – | 9.4 | 139 |
| CC(C)n1nc(NCC(C)(C)O)c2cnc(Nc3ccnc(-c4cnn(S(=O)(=O)C5CC5)c4)n3)cc21 [Example 61, 1-(6-(2-(1-(cyclopropylsulfonyl)-1H-pyrazol-4-yl)pyrimidin-4-ylamino)-1-isopropyl-1H-pyrazolo[4,3-c]pyridin-3-ylamino)-2-methylpropan-2-ol] | 1 | – | 68.9 | 1200 |
| CC(C)Oc1nn(C(C)C)c2cc(Nc3ccnc(-c4cnn(S(=O)(=O)C5CC5)c4)n3)ncc12 [Example 62, N-(2-(1-(cyclopropylsulfonyl)-1H-pyrazol-4-yl)pyrimidin-4-yl)-3-isopropoxy-1-isopropyl-1H-pyrazolo[4,3-c]pyridin-6-amine] | 12 | – | 458 | 3590 |
| COCC1CN(c2nn(C(C)C)c3cc(Nc4ccnc(-c5cnn(S(=O)(=O)C6CC6)c5)n4)ncc23)C1 [Example 152, N-(2-(1-(Cyclopropylsulfonyl)-1H-pyrazol-4-yl)pyrimidin-4-yl)-1-isopropyl-3-(3-(methoxymethyl)azetidin-1-yl)-1H-pyrazolo[4,3-c]pyridin-6-amine] | – | 0.8 | – | 211 |
